Measurements taken from patent publication US20240067651A1 (Biohaven Therapeutics Ltd., priority 2019, published 2024).

Experiments:
[1] = Plasma Stability; format: in vitro ADME, human
Summary of the method: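 Parent compound quantified by LC-MS/MS after acetonitrile precipitation, reported as percent of control remaining (triplicate). Incubation: 1 hour, 37° C, fresh human plasma, compound at 1 μM.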

[2] = Stability in Simulated Gastric Fluid (SGF); format: in vitro ADME; design: key: % parent compound remaining relative to 0-minute sample
Summary of the method: (§1)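 Each compound is spiked to a final 2 μg/mL into SGF with pepsin (pH 1.2) and into SIF with pancreatin (pH 6.8). Samples shake at 37° C, aliquots are taken between 0 and 60 minutes, precipitated with acetonitrile and analysed by LC-MS/MS. Degradation half-life is derived from the natural-log plot where time points allow.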

[3] = Caco-2 Permeability Assay; format: in vitro ADME, human; conditions: human
Summary of the method: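 Bidirectional transport at 37 °C for 90 min, 10 μM donor concentration, with or without Pgp inhibitor, across 21-day Caco-2 monolayers with TEER >600 […] in HEPES-buffered HBSS, pH 7.4. LC-MS/MS of donor and receiver samples gives Papp, B→A/A→B efflux ratio and mass recovery.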

[4] = Stability in Simulated Intestinal Fluid (SIF); format: in vitro ADME; design: key: % parent compound remaining relative to 0-minute sample
Summary of the method: as §1

[5] = % remaining at 1 h, human plasma, 1 μM, 37° C.
[6] = % remaining at 1 h, SGF with pepsin pH 1.2, 2 μg/mL, 37° C.
[7] = Caco-2, pH 7.4, donor 10 μM, 90 minutes, 37° C., direction not given
[8] = % remaining at 1 h, SIF with pancreatin pH 6.8, 2 μg/mL, 37° C.
[9] = % remaining at 1 h in human plasma, the 15th table
[10] = % remaining at 1 h in simulated gastric fluid, the 15th table
[11] = Caco-2, pH 7.4, Caco-2 monolayer, the 15th table
[12] = % remaining at 1 h in simulated intestinal fluid, the 15th table
[13] = bare number, unit or time not given, the 15th table Examples 204-207
[14] = % remaining at 1 h in human plasma, the 17th table
[15] = % remaining at 1 h in simulated gastric fluid, the 17th table
[16] = Caco-2, pH 7.4, Caco-2 monolayer, the 17th table
[17] = % remaining at 1 h in simulated intestinal fluid, the 17th table

| Compound | human Plasma stability [1, 9] | SGF [2, 10] | Papp at 90 min, 10 µM [3, 11] [nm/s] | SIF [4, 12] | other results |
| --- | --- | --- | --- | --- | --- |
| CC(C)OCCn1c(=S)[nH]c(=O)c2c1ccn2COC(N)=O [Example 181, Carbamic acid 1-(2-isopropoxy-ethyl)-4-oxo-2-thioxo-1,2,3,4-tetrahydro-pyrrolo[3,2-d]pyrimidin-5-ylmethyl ester] | – | – | – | – | human Plasma stability [1, 5]: 99%; SGF [2, 6]: 82%; Papp at 90 min, 10 µM [3, 7]: 218 nm/s; SIF [4, 8]: 97% |
| CCCNC(=O)OCSc1nc(=O)c2c(ccn2COC(=O)NCCC)n1CCOC(C)C [Example 183] | 92% @ 1 h | 94% @ 1 h | 45.9 | 99% @ 1 h | – |
| CC(C)CNC(=O)OCSc1nc(=O)c2c(ccn2C(=O)NCC(C)C)n1CCOC(C)C [Example 187] | 96% @ 1 h | 97% @ 1 h | 331 | 97% @ 1 h | – |
| CCN(C(=O)OCSc1nc(=O)c2c(ccn2COC(=O)N(CC)C(C)C)n1CCOC(C)C)C(C)C [Example 189] | 98% @ 1 h | 99% @ 1 h | 306 | 97% @ 1 h | – |
| CCN(C(=O)OCSc1nc(=O)c2[nH]ccc2n1CCOC(C)C)C(C)C [Example 190] | 99% @ 1 h | 99% @ 1 h | 138 | 98% @ 1 h | – |
| CC(C)NC(=O)OCSc1nc(=O)c2[nH]ccc2n1CCOC(C)C [Example 196] | 99% remaining | 99% remaining | 195 | 98% remaining | – |
| COC(=O)OCSc1nc(=O)c2c(ccn2COC(=O)OC)n1CCOC(C)C [Example 198] | 0% remaining | 79% remaining | 114 | 74% remaining | – |
| COC(=O)OCSc1nc(=O)c2c(ccn2CSc2nc(=O)c3[nH]ccc3n2CCOC(C)C)n1CCOC(C)C [Example 199] | 46% remaining | 47% remaining | 55.4 | 79% remaining | – |
| CCCCCCCCOC(=O)OCSc1nc(=O)c2[nH]ccc2n1CCOC(C)C [Example 206] | 99% remaining | – | 1.38 | – | SGF [2, 13]: 91; SIF [4, 13]: 1 |
| CC(C)OCCn1c(SC(C)OC(=O)N(C(C)C)C(C)C)nc(=O)c2[nH]ccc21 (centres unmarked) [Example 208, 1-({4-Oxo-1-[2-(propan-2-yloxy)ethyl]-1H,4H,5H-pyrrolo[3,2-d]pyrimidin-2-yl}sulfanyl)ethyl N,N-bis(propan-2-yl)carbamate] | – | – | – | – | human Plasma stability [1, 5]: 98%; SGF [2, 6]: 1%; Papp at 90 min, 10 µM [3, 7]: 183 nm/s; SIF [4, 8]: 93% |
| CC(C)OCCn1c(SCOC(=O)N(C)c2ccccc2)nc(=O)c2[nH]ccc21 [Example 209, ({4-oxo-1-[2-(propan-2-yloxy)ethyl]-1H,4H,5H-pyrrolo[3,2-d]pyrimidin-2-yl}sulfanyl)methyl N-methyl-N-phenylcarbamate] | – | – | – | – | human Plasma stability [1, 5]: 97% remaining; SGF [2, 6]: 99% remaining; Papp at 90 min, 10 µM [3, 7]: 161 nm/s; SIF [4, 8]: 99% remaining |
| CC(C)OCCn1c(SCOC(=O)N(C)c2cccc(F)c2)nc(=O)c2[nH]ccc21 [Example 210, ({4-oxo-1-[2-(propan-2-yloxy)ethyl]-1H,4H,5H-pyrrolo[3,2-d]pyrimidin-2-yl}sulfanyl)methyl N-(3-fluorophenyl)-N-methylcarbamate] | – | – | – | – | human Plasma stability [1, 5]: 97% remaining; SGF [2, 6]: 100% remaining; Papp at 90 min, 10 µM [3, 7]: 183 nm/s; SIF [4, 8]: 97% remaining |
| CC(C)OCCn1c(SCOC(=O)N(C)c2ccc(F)cc2)nc(=O)c2[nH]ccc21 [Example 211, ({4-oxo-1-[2-(propan-2-yloxy)ethyl]-1H,4H,5H-pyrrolo[3,2-d]pyrimidin-2-yl}sulfanyl)methyl N-(4-fluorophenyl)-N-methylcarbamate] | – | – | – | – | human Plasma stability [1, 5]: 99% remaining; SGF [2, 6]: 100% remaining; Papp at 90 min, 10 µM [3, 7]: 200 nm/s; SIF [4, 8]: 96% remaining |
| CC(C)OCCn1c(SC(C)OC(=O)N(C)c2ncccc2COC(=O)CN(C)C(=O)OC(C)(C)C)nc(=O)c2[nH]ccc21 (centres unmarked) [Example 212, (tert-Butoxycarbonyl-methyl-amino)-acetic acid 2-({1-[1-(2-isopropoxy-ethyl)-4-oxo-4,5-dihydro-1H-pyrrolo[3,2-d]pyrimidin-2-ylsulfanyl]-ethoxycarbonyl}-methyl-amino)-pyridin-3-ylmethyl ester] | – | – | – | – | human Plasma stability [1, 5]: 97%; SGF [2, 6]: 89%; Papp at 90 min, 10 µM [3, 7]: 8.7 nm/s; SIF [4, 8]: 97% |
| CCCCCCOC(=O)OCn1ccc2c1c(=O)nc(S)n2CCOC(C)C [Example 213] | – | – | – | – | human Plasma stability [1, 14]: 44% remaining; SGF [2, 15]: 76% remaining; Papp at 90 min, 10 µM [3, 16]: 30.3 nm/s; SIF [4, 17]: 1% remaining |
| CCCCCCOC(=O)OCSc1nc(=O)c2c(ccn2COC(=O)OCCCCCC)n1CCOC(C)C [Example 214] | – | – | – | – | human Plasma stability [1, 14]: 77% remaining; SGF [2, 15]: 80% remaining; Papp at 90 min, 10 µM [3, 16]: 16.3 nm/s; SIF [4, 17]: 2% remaining |

Second part, led by results:

| human Plasma stability [1, 9] | SGF [2, 10] | Papp at 90 min, 10 µM [3, 11] [nm/s] | SIF [4, 12] | Compound | other results |
| --- | --- | --- | --- | --- | --- |
| 98% @ 1 h | 86% @ 1 h | 72.3 | 100% @ 1 h | CC(C)CNC(=O)OCSc1nc(=O)c2[nH]ccc2n1CCOC(C)C [Example 186] | – |
| 99% @ 1 h | 98% @ 1 h | 117 | 97% @ 1 h | CC(C)CNC(=O)OCSc1nc(=O)c2c(ccn2COC(=O)NCC(C)C)n1CCOC(C)C [Example 188] | – |
| 16% @ 1 h | 15% @ 1 h | 10.8 | 82% @ 1 h | CC(C)OCCn1c(=S)[nH]c(=O)c2c1ccn2C(=O)OC(C)(C)C [Example 191] | – |
| 97% remaining | 100% remaining | 38.4 | 50% remaining | CC(C)OCCn1c(SCOC(=O)NCc2ccccc2)nc(=O)c2[nH]ccc21 [Example 192] | – |
| 95% remaining | 98% remaining | 316 | 57% remaining | CC(C)OCCn1c(SCOC(=O)NCc2ccccc2)nc(=O)c2c1ccn2C(=O)NCc1ccccc1 [Example 193] | – |
| 97% remaining | 99% remaining | 429 | 59% remaining | CCCCNC(=O)OCSc1nc(=O)c2c(ccn2C(=O)NCCCC)n1CCOC(C)C [Example 194] | – |
| 97% remaining | 100% remaining | 300 | 99% remaining | CC(C)NC(=O)OCSc1nc(=O)c2c(ccn2C(=O)NC(C)C)n1CCOC(C)C [Example 195] | – |
| 2% remaining | 100% remaining | 97.6 | 75% remaining | COC(=O)OCSc1nc(=O)c2[nH]ccc2n1CCOC(C)C [Example 200] | – |
| 1% remaining | 99% remaining | 134 | 63% remaining | CC(C)OCCn1c(SCOC(=O)OC(C)C)nc(=O)c2[nH]ccc21 [Example 203] | – |
| 1% remaining | – | 63.5 | – | CCCCOC(=O)OCSc1nc(=O)c2[nH]ccc2n1CCOC(C)C [Example 204] | SGF [2, 13]: 85; SIF [4, 13]: 2 |
